According to US11400059B2, “Treatment of pain and/or pain related symptoms associated with dysmenorrhea” (ALYRA BIOTECH PTY LTD, priority 2017, dated 2022):

How the values were obtained:
Human TLR8 = target: T1, Human TLR8 (Homo sapiens, UniProt Q9NR97); experiment: Human TLR antagonist screening, NF-κB SEAP reporter in HEK293 cells; assay type: cell-based; conditions: antagonist mode, test article 1 μM, +CL075 200 ng/ml, No Sample 13, Control− 1
T1 construct: expressed in transfected cells; host or cells: HEK293
T1 sequence (Q9NR97 27-1041): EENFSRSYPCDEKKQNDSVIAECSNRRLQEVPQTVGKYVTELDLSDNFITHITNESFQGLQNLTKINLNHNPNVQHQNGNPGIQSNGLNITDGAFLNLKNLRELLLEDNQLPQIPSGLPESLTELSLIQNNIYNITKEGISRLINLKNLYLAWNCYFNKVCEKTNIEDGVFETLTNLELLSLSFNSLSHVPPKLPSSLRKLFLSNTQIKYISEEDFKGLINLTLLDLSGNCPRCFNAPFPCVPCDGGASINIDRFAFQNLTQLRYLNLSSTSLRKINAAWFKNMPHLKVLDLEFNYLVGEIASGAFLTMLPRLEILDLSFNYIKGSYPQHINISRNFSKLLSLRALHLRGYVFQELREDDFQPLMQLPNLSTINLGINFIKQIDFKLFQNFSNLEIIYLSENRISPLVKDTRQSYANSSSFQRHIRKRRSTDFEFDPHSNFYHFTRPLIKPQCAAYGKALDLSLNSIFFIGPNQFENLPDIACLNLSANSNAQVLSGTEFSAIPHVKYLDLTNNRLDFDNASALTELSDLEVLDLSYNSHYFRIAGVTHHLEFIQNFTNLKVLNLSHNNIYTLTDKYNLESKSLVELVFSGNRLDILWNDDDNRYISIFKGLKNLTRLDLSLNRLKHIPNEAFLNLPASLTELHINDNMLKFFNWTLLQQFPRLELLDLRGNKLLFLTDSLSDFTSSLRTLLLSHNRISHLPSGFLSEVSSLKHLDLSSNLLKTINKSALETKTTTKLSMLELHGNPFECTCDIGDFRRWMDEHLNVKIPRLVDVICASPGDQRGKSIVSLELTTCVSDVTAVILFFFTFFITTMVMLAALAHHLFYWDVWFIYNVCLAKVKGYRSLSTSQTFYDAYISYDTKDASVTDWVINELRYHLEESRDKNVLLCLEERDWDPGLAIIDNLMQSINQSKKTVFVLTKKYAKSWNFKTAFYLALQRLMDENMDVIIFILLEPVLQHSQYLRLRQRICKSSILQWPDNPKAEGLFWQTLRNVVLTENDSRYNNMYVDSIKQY
Procedure: Toll-Like Receptor (TLR), NOD-Like Receptor (NLR) and C-Type Lectin Receptor (CLR) stimulation were tested by assessing NF-κB activation in HEK293 cells expressing a given TLR, NLR or CLR. The activity of the test articles was tested at one concentration and compared to control ligands. These steps were performed in triplicate. hTLR8: […] In a 96-well plate (200 μL total volume) containing the appropriate cells (50,000-75,000 cells/well), 20 μL of the test article or the positive control ligand was added to the wells. For the antagonist assay, the test article was incubated with the cells, at 37° C. with 5% CO2, for 30 minutes prior to the addition of the positive control ligand to the wells. The media added to the wells was designed for the detection of NF-κB induced SEAP expression. After a 16-24 hr incubation the optical density (OD) was read at 650 nm on a Molecular Devices SpectraMax 340PC absorbance detector. Fold induction (ratio of average induced value to average non-induced value) was determined for each TLR, NOD1, NOD2, Dectin-1a, Dectin-1b.

Human TLR3 = target: T2, Human TLR3 (Homo sapiens, UniProt O15455); experiment: as above; assay type: cell-based; conditions: antagonist mode, test article 1 μM, +Poly(I:C) 50 ng/ml, No Sample 14, Control− 1
T2 construct: expressed in transfected cells; host or cells: HEK293
T2 sequence (O15455 24-904): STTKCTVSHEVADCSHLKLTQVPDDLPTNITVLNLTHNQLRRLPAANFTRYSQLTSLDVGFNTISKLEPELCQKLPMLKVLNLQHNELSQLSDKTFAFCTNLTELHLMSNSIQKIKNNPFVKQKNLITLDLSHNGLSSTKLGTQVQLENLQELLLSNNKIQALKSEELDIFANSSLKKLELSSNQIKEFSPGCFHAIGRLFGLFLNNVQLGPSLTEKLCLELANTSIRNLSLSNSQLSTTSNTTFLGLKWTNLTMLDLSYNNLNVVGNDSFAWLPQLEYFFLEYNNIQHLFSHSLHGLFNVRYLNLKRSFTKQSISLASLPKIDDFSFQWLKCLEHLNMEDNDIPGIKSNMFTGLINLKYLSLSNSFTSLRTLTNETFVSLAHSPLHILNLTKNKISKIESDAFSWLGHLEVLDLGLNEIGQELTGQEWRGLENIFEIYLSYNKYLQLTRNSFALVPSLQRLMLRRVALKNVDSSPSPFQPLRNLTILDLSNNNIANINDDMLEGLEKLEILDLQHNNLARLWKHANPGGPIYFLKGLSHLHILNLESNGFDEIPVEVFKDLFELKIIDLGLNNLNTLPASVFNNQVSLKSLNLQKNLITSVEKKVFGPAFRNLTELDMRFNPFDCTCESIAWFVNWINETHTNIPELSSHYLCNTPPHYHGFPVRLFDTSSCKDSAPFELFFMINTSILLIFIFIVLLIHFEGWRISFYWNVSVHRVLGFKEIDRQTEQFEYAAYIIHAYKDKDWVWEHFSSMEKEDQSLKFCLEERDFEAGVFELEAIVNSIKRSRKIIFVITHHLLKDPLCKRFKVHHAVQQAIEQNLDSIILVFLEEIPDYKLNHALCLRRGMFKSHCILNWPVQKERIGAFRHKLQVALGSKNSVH
Procedure: Toll-Like Receptor (TLR), NOD-Like Receptor (NLR) and C-Type Lectin Receptor (CLR) stimulation were tested by assessing NF-κB activation in HEK293 cells expressing a given TLR, NLR or CLR. The activity of the test articles was tested at one concentration and compared to control ligands. These steps were performed in triplicate. hTLR3: Poly(I:C) HMW at 1 μg/mL Antagonist: 50 ng/mL. In a 96-well plate (200 μL total volume) containing the appropriate cells (50,000-75,000 cells/well), 20 μL of the test article or the positive control ligand was added to the wells. For the antagonist assay, the test article was incubated with the cells, at 37° C. with 5% CO2, for 30 minutes prior to the addition of the positive control ligand to the wells. The media added to the wells was designed for the detection of NF-κB induced SEAP expression. After a 16-24 hr incubation the optical density (OD) was read at 650 nm on a Molecular Devices SpectraMax 340PC absorbance detector. Fold induction (ratio of average induced value to average non-induced value) was determined for each TLR, NOD1, NOD2, Dectin-1a, Dectin-1b.

| SMILES | Fold Induction (Human TLR8) | Fold Induction (Human TLR8; listed as Nor) | Fold Induction (Human TLR3) | Fold Induction (Human TLR3; listed as Nor) | Fold Induction (Human TLR8; listed as Ami) | Fold Induction (Human TLR3; listed as Ami) |
| --- | --- | --- | --- | --- | --- | --- |
| CNCCC=C1c2ccccc2CCc2ccccc21 [Nortriptyline] | slight inhibitory effect | 11 | slight inhibitory effect | 12 | – | – |
| CN(C)CCC=C1c2ccccc2CCc2ccccc21 [Amitriptyline] | slight inhibitory effect | – | slight inhibitory effect | – | 11 | 12 |
